This is an account of results in PubChem BioAssay AID256 (DTP/NCI, 2004).

Inconclusive results and toxic doses are left out.

In the assay the test system is CD2F1 mice, L1210 leukemia ip, survival T/C. The experiment in a line: NCI In Vivo Anticancer Drug Screen. Data for tumor model L1210 Leukemia (intraperitoneal) in CD2F1 (CDF1) mice. The settings on record: higher = longer survival. Put shortly: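 Transplantable tumor in mice; compound-treated vs vehicle-treated groups. Read-out = treated/control ratio of the measured endpoint.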

The mark [1] stands for this setting: endpoint: mean survival time, dose: 25.0 mg/kg/injection, schedule: Q01DX001 (ip), vehicle: saline with Tween-80.
[2] abbreviates: endpoint: mean survival time, dose: 50.0 mg/kg/injection, schedule: Q01DX001 (ip), vehicle: saline with Tween-80.
[3] abbreviates: endpoint: mean survival time, dose: 100.0 mg/kg/injection, schedule: Q01DX001 (ip), vehicle: saline with Tween-80.
Where [4] appears, read: endpoint: mean survival time, dose: 200.0 mg/kg/injection, schedule: Q01DX001 (ip), vehicle: saline with Tween-80.
[5] abbreviates: endpoint: mean survival time, dose: 400.0 mg/kg/injection, schedule: Q01DX001 (ip), vehicle: saline with Tween-80.
[6] abbreviates: endpoint: mean survival time, dose: 100.0 mg/kg/injection, schedule: Q01DX009 (ip), vehicle: saline with Tween-80.
Setting [7] is: endpoint: mean survival time, dose: 100.0 mg/kg/injection, schedule: Q04DX003 (ip), vehicle: saline with Tween-80.
The mark [8] stands for this setting: endpoint: mean survival time, dose: 200.0 mg/kg/injection, schedule: Q01DX009 (ip), vehicle: saline with Tween-80.
Setting [9] is: endpoint: mean survival time, dose: 200.0 mg/kg/injection, schedule: Q04DX003 (ip), vehicle: saline with Tween-80.
The mark [10] stands for this setting: endpoint: mean survival time, dose: 400.0 mg/kg/injection, schedule: Q01DX009 (ip), vehicle: saline with Tween-80.
Where [11] appears, read: endpoint: mean survival time, dose: 400.0 mg/kg/injection, schedule: Q04DX003 (ip), vehicle: saline with Tween-80.
The mark [12] stands for this setting: endpoint: mean survival time, dose: 25.0 mg/kg/injection, schedule: Q04DX002 (ip), vehicle: saline with Tween-80.
[13] abbreviates: endpoint: mean survival time, dose: 50.0 mg/kg/injection, schedule: Q04DX002 (ip), vehicle: saline with Tween-80.
[14] abbreviates: endpoint: mean survival time, dose: 100.0 mg/kg/injection, schedule: Q04DX002 (ip), vehicle: saline with Tween-80.
Setting [15] is: endpoint: mean survival time, dose: 50.0 mg/kg/injection, schedule: Q01DX009 (ip), vehicle: saline.
Where [16] appears, read: endpoint: mean survival time, dose: 100.0 mg/kg/injection, schedule: Q01DX009 (ip), vehicle: saline.
The mark [17] stands for this setting: endpoint: mean survival time, dose: 200.0 mg/kg/injection, schedule: Q01DX009 (ip), vehicle: saline.

`CC(C)(C)C1=CC(=N/S(=O)(=O)c2ccccc2)/C(N=[N+]=[N-])=C(Cl)C/1=N\S(=O)(=O)c1ccccc1`: the T/C is, setting by setting: under setting [1], 101 % of control; under setting [2], 93 % of control; under setting [3], 93 % of control; under setting [4], 95 % of control; under setting [5], 100 % of control.
As to `O.O=C(O)C(Cc1ccc(O)cc1)N=Cc1c(O)cncc1COP(=O)(O)O.[Cu]` (stereo unspecified), the T/C reads like this: (endpoint: mean survival time, dose: 12.5 mg/kg/injection, schedule: Q01DX001 (ip), vehicle: saline with Tween-80) 95 % of control; under setting [1], 103 % of control; under setting [2], 98 % of control.
On to `N/N=C1\CC2C3CC4(OCCO4)C4C3CC2C14` (stereo unspecified), for which the T/C reads like this: (endpoint: mean survival time, dose: 75.0 mg/kg/injection, schedule: Q01DX001 (ip), vehicle: saline) 102 % of control; (endpoint: mean survival time, dose: 150.0 mg/kg/injection, schedule: Q01DX001 (ip), vehicle: saline) 103 % of control.
Turning to `CCCCNC(C)(C)C(SSSC(c1cccs1)C(C)(C)NCCCC)c1cccs1` (stereo unspecified), the T/C runs as follows: (endpoint: mean survival time, dose: 100.0 mg/kg/injection, schedule: Q01DX009 (ip), vehicle: saline sonified) 100 % of control; (endpoint: mean survival time, dose: 200.0 mg/kg/injection, schedule: Q01DX009 (ip), vehicle: saline sonified) 103 % of control.
Turning to `O=C1CCNC(=O)N1`, the T/C by setting is: under setting [6], 93 % of control; under setting [7], 106 % of control; under setting [8], 98 % of control; under setting [9], 101 % of control; under setting [10], 93 % of control; under setting [11], 95 % of control.
For the molecule `Cc1ccc(N2OCCN(C(=O)c3cc([N+](=O)[O-])cc([N+](=O)[O-])c3)C2c2ccccc2)cc1` (stereo unspecified), the T/C runs as follows: under setting [6], 91 % of control; under setting [8], 95 % of control; under setting [10], 91 % of control.
In the case of `OCCNCCO`, the T/C by setting is: under setting [6], 93 % of control; under setting [7], 97 % of control; under setting [8], 93 % of control; under setting [9], 103 % of control; under setting [10], 96 % of control; under setting [11], 107 % of control.
Take `CCOC(=O)C1C2CCC(O2)C1C#N` (stereo unspecified): the T/C is, setting by setting: under setting [12], 98 % of control; under setting [13], 98 % of control; under setting [14], 98 % of control.
As to `CC(=O)OC1(c2ccccc2)CC(=O)C=C1c1ccccc1` (stereo unspecified), the T/C by setting is: under setting [12], 102 % of control; under setting [13], 91 % of control; under setting [14], 87 % of control.
Consider `CC(=O)c1ccc[n+](Cc2ccc([N+](=O)[O-])cc2)c1`, for which the T/C by setting is: (endpoint: mean survival time, dose: 25.0 mg/kg/injection, schedule: Q01DX009 (ip), vehicle: saline) 117 % of control; under setting [15], 109 % of control; under setting [16], 108 % of control.
`O=NN(CCCl)C(=O)Nc1ccc2c(c1)OCO2`: the T/C is, setting by setting: (endpoint: mean survival time, dose: 44.0 mg/kg/injection, schedule: Q01DX001 (ip), vehicle: other) 156 % of control; (endpoint: mean survival time, dose: 66.0 mg/kg/injection, schedule: Q01DX001 (ip), vehicle: other) 216 % of control; (endpoint: mean survival time, dose: 100.0 mg/kg/injection, schedule: Q01DX001 (ip), vehicle: other) 277 % of control; (endpoint: mean survival time, dose: 150.0 mg/kg/injection, schedule: Q01DX001 (ip), vehicle: other) 171 % of control.
As to `C(=N\Nc1nc2ccccc2s1)/c1cccnc1`, the T/C was 97 % of control (endpoint: mean survival time, dose: 100.0 mg/kg/injection, schedule: Q04DX003 (ip), vehicle: Klucel (hydroxypropylcellulose) (HPC)); 94 % of control (endpoint: mean survival time, dose: 200.0 mg/kg/injection, schedule: Q04DX003 (ip), vehicle: Klucel (hydroxypropylcellulose) (HPC)); 100 % of control (endpoint: mean survival time, dose: 400.0 mg/kg/injection, schedule: Q04DX003 (ip), vehicle: Klucel (hydroxypropylcellulose) (HPC)).
On to `NC(=O)COc1ccc(Cl)cc1Cl`, for which the T/C by setting is: under setting [3], 98 % of control; under setting [6], 94 % of control; under setting [4], 94 % of control; under setting [8], 96 % of control; under setting [5], 94 % of control.
As to `O=C(c1ccccc1)C(Br)C(Br)c1ccccc1` (stereo unspecified), the T/C reads like this: under setting [6], 93 % of control; under setting [7], 94 % of control; under setting [4], 91 % of control; under setting [8], 106 % of control; under setting [9], 90 % of control; under setting [5], 94 % of control. Moreover, the T/C is, setting by setting: under setting [10], 95 % of control; under setting [11], 92 % of control.
For `CCOC(=O)Nc1cc(Nc2ccccc2)c(N)c(N)n1`, the T/C was 88 % of control (endpoint: mean survival time, dose: 100.0 mg/kg/injection, schedule: Q01DX001 (ip), vehicle: saline) and 94 % of control (endpoint: mean survival time, dose: 200.0 mg/kg/injection, schedule: Q01DX001 (ip), vehicle: saline).
Consider `NCCCNCCCCNCCCN`, for which the T/C is, setting by setting: (endpoint: median survival time, dose: 24.75 mg/kg/injection, schedule: Q04DX003 (ip), vehicle: saline) 101 % of control; (endpoint: median survival time, dose: 49.5 mg/kg/injection, schedule: Q04DX003 (ip), vehicle: saline) 107 % of control.
As to `CCOC(=O)C12CC=CC(CCC1)/C2=N\Nc1ccccc1` (stereo unspecified), the T/C is 108 % of control under setting [6]; 105 % of control under setting [7]; 103 % of control under setting [8]; 103 % of control under setting [9]; 103 % of control under setting [10]; 92 % of control under setting [11].
Consider `C=CCC(Cc1ccccc1)C1=NC(C)(C)CC(C)O1` (stereo unspecified), for which the T/C is 101 % of control (endpoint: mean survival time, dose: 50.0 mg/kg/injection, schedule: Q01DX009 (ip), vehicle: saline with Tween-80); 97 % of control under setting [3]; 97 % of control under setting [6]; 103 % of control under setting [4]; 94 % of control under setting [8].
Turning to `O=C(O)C(=O)c1ccccc1`, the T/C is 98 % of control under setting [15], 104 % of control under setting [16] and 107 % of control under setting [17].
Take `CCC(=O)Oc1ccc(/C=N/NC(N)=S)nc1`: the T/C was 108 % of control (endpoint: mean survival time, dose: 100.0 mg/kg/injection, schedule: Q04DX002 (ip), vehicle: other); 114 % of control (endpoint: mean survival time, dose: 178.0 mg/kg/injection, schedule: Q01DX001 (ip), vehicle: other); 116 % of control (endpoint: mean survival time, dose: 178.0 mg/kg/injection, schedule: Q04DX003 (ip), vehicle: other); 123 % of control (endpoint: mean survival time, dose: 200.0 mg/kg/injection, schedule: Q04DX002 (ip), vehicle: other); 112 % of control (endpoint: mean survival time, dose: 266.0 mg/kg/injection, schedule: Q01DX001 (ip), vehicle: other); 113 % of control (endpoint: mean survival time, dose: 266.0 mg/kg/injection, schedule: Q04DX003 (ip), vehicle: other). The T/C was 118 % of control (endpoint: mean survival time, dose: 400.0 mg/kg/injection, schedule: Q01DX001 (ip), vehicle: other); 122 % of control (endpoint: mean survival time, dose: 400.0 mg/kg/injection, schedule: Q04DX003 (ip), vehicle: other); 110 % of control (endpoint: mean survival time, dose: 600.0 mg/kg/injection, schedule: Q01DX001 (ip), vehicle: other); 119 % of control (endpoint: mean survival time, dose: 600.0 mg/kg/injection, schedule: Q04DX003 (ip), vehicle: other); 122 % of control (endpoint: mean survival time, dose: 900.0 mg/kg/injection, schedule: Q04DX003 (ip), vehicle: other).
As to `CCCCCCCNC(=O)Nc1cc([N+](=O)[O-])ccc1C`, the T/C under setting [7] is 93 % of control, the T/C under setting [9] is 94 % of control and the T/C under setting [11] is 98 % of control.
As for `O=C(O)c1ccsc1`, the T/C was 97 % of control (endpoint: mean survival time, dose: 37.5 mg/kg/injection, schedule: Q04DX003 (ip), vehicle: saline with Tween-80) and 97 % of control (endpoint: mean survival time, dose: 75.0 mg/kg/injection, schedule: Q04DX003 (ip), vehicle: saline with Tween-80).
In the case of `COc1cc2nc(C(O)C(O)c3nc4cc(OC)c(OC)cc4[nH]3)[nH]c2cc1OC` (stereo unspecified), the T/C reads like this: under setting [7], 101 % of control; under setting [9], 98 % of control.
In the case of `OC(Cc1[nH]c2ccccc2c1C(O)(C(F)(F)F)C(F)(F)F)(C(F)(F)F)C(F)(F)F`, the T/C by setting is: (endpoint: mean survival time, dose: 100.0 mg/kg/injection, schedule: Q01DX009 (ip), vehicle: other) 101 % of control; (endpoint: mean survival time, dose: 200.0 mg/kg/injection, schedule: Q01DX009 (ip), vehicle: other) 110 % of control; (endpoint: mean survival time, dose: 400.0 mg/kg/injection, schedule: Q01DX009 (ip), vehicle: other) 94 % of control.
Turning to `OC(c1ccccc1)c1ccccc1`, the T/C by setting is: under setting [16], 91 % of control; under setting [17], 91 % of control; (endpoint: mean survival time, dose: 400.0 mg/kg/injection, schedule: Q01DX009 (ip), vehicle: saline) 91 % of control.
As for `CNC(=O)Sc1nnnc2ccccc12`, the T/C is 101 % of control under setting [7], 93 % of control under setting [9] and 98 % of control under setting [11].
